# Test results published in patent US10800789B2, “Antiviral compounds” (Gilead Pharmasset LLC, priority 2012, dated 2020).
# Like-named read-outs stand apart in the source and are kept apart here.
# Assays:
# [1] = system: stable HCV 2a JFH-1 Rluc replicon cells (L31 present in NS5A); experiment: Renilla luciferase HCV replicon reporter assay, genotype 2a JFH-1; format: cell-based; conditions: Hepatitis C virus
# In short: (§1)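 72 h compound exposure (3-fold dilutions from 10 mM DMSO stocks) of replicon cells: stable dicistronic RLuc 1a H77, 1b Con1, 2a JFH-1 (NS5A L31); J6-NS5A chimera in JFH-1 (M31), transient in Huh-Lunet or stable. Renilla luciferase read-out, non-linear regression → EC50. DMSO negative control.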
# [2] = system: NS5A chimeric genotype 2a JFH-1 replicon with genotype 2b MD2b-1 strain NS5A gene (M31 present); experiment: Replicon assay, genotype 2b NS5A chimera; format: cell-based, HCV; conditions: Hepatitis C virus
# In short: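 EC50 was fitted by non-linear regression to Renilla luciferase signal after 72 h of exposure to 3-fold serially diluted compound (10 mM DMSO stocks). Controls were DMSO (none) and ITMN-191 above 100×EC50 (full). Chimeric 2a replicons were used either stable or transiently transfected into Huh-Lunet cells.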
# [3] = system: stable HCV 1b RLuc replicon cells (dicistronic genotype 1b Con1 replicon); experiment: Renilla luciferase HCV replicon reporter assay, genotype 1b; format: cell-based; conditions: Hepatitis C virus, 72 h, stable 1b Con1 RLuc replicon cells, 72 hours; read-out: 1b
# In short: as §1
# [4] = system: stable HCV 1a RLuc replicon cells (dicistronic genotype 1a H77 replicon); experiment: Renilla luciferase HCV replicon reporter assay, genotype 1a; format: cell-based; conditions: Hepatitis C virus, 72 h, stable 1a H77 RLuc replicon cells
# In short: as §1
# [5] = system: Q30R in genotype 1a NS5A (1a Pi-Rluc replicon, Huh-7-derived cured-51 cells); experiment: Replicon assay against resistance mutant 1a Q30R; format: cell-based, HCV; conditions: Hepatitis C virus
# Method: Antiviral potency (EC50) was determined using a Renilla luciferase (RLuc)-based HCV replicon reporter assay. To perform the assay for genotype 1 and 2a JFH-1, stable HCV 1a RLuc replicon cells (harboring a dicistronic genotype 1a H77 replicon that encodes a RLuc reporter), stable HCV 1b RLuc replicon cells (harboring a dicistronic genotype 1b Con1 replicon that encodes a RLuc reporter), or stable HCV 2a JFH-1 Rluc replicon cells (harboring a dicistronic genotype 2a JFH-1 replicon that encodes a RLuc reporter; with L31 present in NS5A) were dispensed into 384-well plates for EC50 assays. To perform the assay for genotype 2a (with M31 present in NS5A) or 2b, NS5A chimeric genotype 2a JFH-1 replicons that encodes a RLuc-Neo reporter and either genotype 2a J6 strain NS5A gene or genotype 2b MD2b-1 strain NS5A gene (both with M31 present) respectively, were either transiently transfected (t) into Huh-Lunet cells or were established as stably replicating replicon cells (s) is provided. Either cells were dispensed into 384-well plates for EC50 assays. To perform the assay for genotype 3 and 4, NS5A chimeric genotype 1b Con1 replicons that encodes a Pi-RLuc reporter and either genotype 3a S52 strain NS5A gene or genotype 4a ED43 strain NS5A gene respectively, were transiently transfected (t) into Huh-Lunet cells, which were subsequently dispensed into 384-well plates. Compounds were dissolved in DMSO at a concentration of 10 mM and diluted in DMSO either manually or using an automated pipeting instrument. Serially 3-fold diluted compounds were either manually mixed with cell culture media and added to the seeded cells or directly added to the cells using an automated instrument. DMSO was used as a negative (solvent; no inhibition) control, and the protease inhibitor ITMN-191 was included at a concentration>100×EC50 as a positive control. 72 hours later, cells were lysed and Renilla luciferase activity quantified as recommended by the manufacturer (Promega-Madison, Wis.). Non-linear regression was performed to calculate EC50 values.
# To determine the antiviral potency (EC50) against resistance mutants, resistance mutations, including M28T, Q30R, Q30H, Q30E, L31M, Y93C, Y93H, and Y93N in genotype 1a NS5A, Y93H and L31V/Y93H in genotype 1b NS5A, and Y93H for in genotype 3a NS5A, were introduced individually into either 1a Pi-Rluc or 1b Pi-Rluc replicons by site directed mutagenesis. Replicon RNA of each resistant mutant was transiently transfected into Huh-7-derived cured-51 cells and antiviral potency was determined on these transfected cells as described above.
# [6] = system: NS5A chimeric genotype 1b Con1 replicon with genotype 3a S52 strain NS5A gene; experiment: Replicon assay, genotype 3a NS5A chimera; format: cell-based, HCV; conditions: Hepatitis C virus
# [7] = system: NS5A chimeric genotype 1b Con1 replicon with genotype 4a ED43 strain NS5A gene; experiment: Replicon assay, genotype 4a NS5A chimera; format: cell-based, HCV; conditions: Hepatitis C virus
# [8] = system: NS5A chimeric genotype 2a JFH-1 replicon with genotype 2a J6 strain NS5A gene (M31 present); experiment: Replicon assay, genotype 2a J6 NS5A chimera; format: cell-based, HCV; conditions: Hepatitis C virus
# In short: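 Cells carrying the stable or transiently transfected (Huh-Lunet) dicistronic RLuc replicons received 3-fold serial compound dilutions from 10 mM DMSO stocks. After 72 h, cells were lysed and Renilla luciferase read. DMSO served as the no-inhibition control and ITMN-191 above 100×EC50 as the positive control; EC50 by non-linear regression.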
# [9] = read-out: 2a JFH (nM), genotype 2a JFH-1 replicon (L31 in NS5A), stable cells
# [10] = read-out: 2a JFH, stable 2a JFH-1 Rluc replicon cells, L31 in NS5A, activity range
# [11] = 2BS, read-out: 2b (s), stably replicating replicon cells (s), activity range
# [12] = read-out: 2b (s) (nM), genotype 2b MD2b-1 NS5A chimeric replicon (M31), stably replicating replicon cells (s)
# [13] = read-out: 3a (s) (nM), genotype 3a NS5A chimeric replicon, stable replicon cells (s)
# [14] = read-out: 3a (s), (s), activity range
# [15] = read-out: 4a (s) (nM), genotype 4a NS5A chimeric replicon, stable replicon cells (s)
# [16] = read-out: 4a (s), (s), activity range
# [17] = read-out: 2b (t) (nM), genotype 2b MD2b-1 NS5A chimeric replicon (M31), transiently transfected (t)
# [18] = read-out: 2b (t), transiently transfected (t) into Huh-Lunet cells, activity range
# [19] = read-out: 2a J6 (t) (nM), genotype 2a J6 NS5A chimeric replicon (M31), transiently transfected (t) into Huh-Lunet cells
# [20] = read-out: 2a J6 (t), transiently transfected (t) into Huh-Lunet cells, activity range
Structure (SMILES),"EC50 [1, 9]","EC50 [1, 10]","EC50 [2, 11]","EC50 [2, 12]",EC50 [3],EC50 [4],EC50 ([4]; activity range),EC50 ([5]; read-out: 1a Q30R),EC50 ([5]; read-out: 1a Q30R (nM)),"EC50 [6, 13]","EC50 [6, 14]","EC50 [7, 15]","EC50 [7, 16]","EC50 [2, 17]","EC50 [2, 18]","EC50 [8, 19]","EC50 [8, 20]"
"COC(=O)N[C@H](C(=O)N1[C@@H](C)CC[C@H]1c1ncc(-c2ccc3c(c2)COc2cc4c(ccc5nc([C@@H]6CC[C@H](C)N6C(=O)[C@@H](NC(=O)OC)[C@@H](C)OC)[nH]c54)cc2-3)[nH]1)C1CCOCC1 [FR, Methyl [(1 S)-2-[(2S,5S)-2-(5-{2-[(2S,5S)-1-{(2S,3R)-3-methoxy-2-[(methoxycarbonyl)amino]butanoyl}-5-methylpyrrolidin-2-yl]-1,11-dihydroisochromeno[4′,3′:6,7]naphtho[1,2-d]imidazol-9-yl}-1H-imidazol-2-yl)-5-methylpyrrolidin-1-yl]-2-oxo-1-(tetrahydro-2H-pyran-4-yl)ethyl]carbamate]",0.015 nM,< 0.1 nM,< 0.1 nM,0.054 nM,0.05 nM,0.026 nM,< 0.1 nM,< 0.1 nM,0.071 nM,0.031 nM,< 0.1 nM,,,,,,
"COC(=O)N[C@H](C(=O)N1[C@@H](C)CC[C@H]1c1ncc(-c2ccc3c(c2)COc2cc4c(ccc5nc([C@@H]6CC[C@H](C)N6C(=O)[C@@H](NC(=O)OC)[C@@H](C)O)[nH]c54)cc2-3)[nH]1)C(C)C [FI, Methyl {(2S,3R)-3-hydroxy-1-[(2S,5S)-2-(9-{2-[(2S,5S)-1-{(2S)-2-[(methoxycarbonyl)amino]-3-methylbutanoyl}-5-methylpyrrolidin-2-yl]-1H-imidazol-5-yl}-1,11-dihydroisochromeno[4′,3′:6,7]naphtho[1,2-d]imidazol-2-yl)-5-methylpyrrolidin-1-yl]-1-oxobutan-2-yl}carbamate]",0.015 nM,< 0.1 nM,0.1 to 0.999 nM,0.152 nM,0.022 nM,0.01 nM,< 0.1 nM,0.1 to 0.999 nM,0.115 nM,0.04 nM,< 0.1 nM,0.012 nM,< 0.1 nM,,,,
"COC[C@H]1C[C@@H](c2ncc(-c3ccc4c(c3)c(=O)oc3cc5c(ccc6nc([C@@H]7CC[C@H](C)N7C(=O)[C@@H](NC(=O)OC)C(C)C)[nH]c65)cc34)[nH]2)N(C(=O)[C@H](NC(=O)OC)c2ccccc2)C1 [GK, methyl {(1R)-2-[(2S,4S)-2-(5-{2-[(2S,5S)-1-{(2S)-2-[(methoxycarbonyl)amino]-3-methylbutanoyl}-5-methylpyrrolidin-2-yl]-11-oxo-1,11-dihydroisochromeno[4′,3′:6,7]naphtho[1,2-d]imidazol-9-yl}-1H-imidazol-2-yl)-4-(methoxymethyl)pyrrolidin-1-yl]-2-oxo-1-phenylethyl}carbamate]",0.024 nM,< 0.1 nM,0.1 to 0.999 nM,0.187 nM,0.036 nM,0.031 nM,< 0.1 nM,0.1 to 0.999 nM,0.111 nM,0.156 nM,0.1 to 0.999 nM,0.028 nM,< 0.1 nM,0.087 nM,< 0.1 nM,0.071 nM,< 0.1 nM
"COC(=O)N[C@H](C(=O)N1[C@@H](C)CC[C@H]1c1ncc(-c2ccc3c(c2)COc2cc4c(ccc5nc([C@@H]6CC[C@H](C)N6C(=O)[C@@H](NC(=O)OC)[C@@H](C)OC(C)(C)C)[nH]c54)cc2-3)[nH]1)C(C)C [FG, Methyl {(2S,3R)-3-tert-butoxy-1-[(2S,5S)-2-(9-{2-[(2S,5S)-1-{(2S)-2-[(methoxycarbonyl)amino]-3-methylbutanoyl}-5-methylpyrrolidin-2-yl]-1H-imidazol-5-yl}-1,11-dihydroisochromeno[4′,3′:6,7]naphtho[1,2-d]imidazol-2-yl)-5-methylpyrrolidin-1-yl]-1-oxobutan-2-yl}carbamate]",0.047 nM,< 0.1 nM,1 to 44 nM,1.53 nM,0.04 nM,0.024 nM,< 0.1 nM,0.1 to 0.999 nM,0.577 nM,0.298 nM,0.1 to 0.999 nM,0.044 nM,< 0.1 nM,,,1.45 nM,1 to 44 nM
"CC[C@H](C)[C@H](NC(=O)OC)C(=O)N1[C@@H](C)CC[C@H]1c1ncc(-c2ccc3c(c2)COc2cc4c(ccc5nc([C@@H]6CC[C@H](C)N6C(=O)[C@@H](NC(=O)OC)C6CCOCC6)[nH]c54)cc2-3)[nH]1 [GG, Methyl [(2S,3S)-1-{(2S,5S)-2-[5-(2-{(2S,5S)-1-[(2S)-2-[(methoxycarbonyl)amino]-2-(tetrahydro-2H-pyran-4-yl)acetyl]-5-methylpyrrolidin-2-yl}-1,11-dihydroisochromeno[4′,3′:6,7]naphtho[1,2-d]imidazol-9-yl)-1H-imidazol-2-yl]-5-methylpyrrolidin-1-yl}-3-methyl-1-oxopentan-2-yl]carbamate]",0.02 nM,< 0.1 nM,< 0.1 nM,0.083 nM,0.022 nM,0.015 nM,< 0.1 nM,< 0.1 nM,0.032 nM,0.038 nM,< 0.1 nM,0.013 nM,< 0.1 nM,0.044 nM,< 0.1 nM,,
"CC[C@H]1CC[C@@H](c2nc3ccc4cc5c(cc4c3[nH]2)OCc2cc(-c3cnc([C@@H]4CC[C@H](C)N4C(=O)[C@@H](NC(=O)OC)C(C)C)[nH]3)ccc2-5)N1C(=O)[C@@H](NC(=O)OC)C1CCOCC1 [EO, methyl[(1 S)-2-[(2S,5S)-2-ethyl-5-(9-{2-[(2S,5S)-1-{(2S)-2 [(methoxycarbonyl)amino]-3-methylbutanoyl}-5-methylpyrrolidin-2-yl]-1H-imidazol-5-yl}-1,11-dihydroisochromeno[4′,3′:6,7]naphtho[1,2-d]imidazol-2-yl)pyrrolidin-1-yl]-2-oxo-1-(tetrahydro-2H-pyran-4-yl)ethyl]carbamate]",0.017 nM,< 0.1 nM,< 0.1 nM,0.091 nM,0.04 nM,0.024 nM,< 0.1 nM,< 0.1 nM,0.052 nM,0.054 nM,< 0.1 nM,,,0.038 nM,< 0.1 nM,,
